Here are results for 8 compounds from patent US20130171178A1, “Immunogenic Peptides of Xage-1” (THE GOVERNMENT OF THE UNITED STATES AS REPRESENTED BY THE …, priority 2003, published 2013).

Structures are written as SMILES. Read-outs that look alike come from different tables or passages of the source. Where a SMILES comes first, the peptide text is derived from it. A value given as a limit tells only on which side of the number the result lay.

One assay has as its target T1, HLA-A2 (Homo sapiens, UniProt P04439, D140Y/D185E/D98H/E176V/E277Q/G131W/G231S/I119V/I121R/I166T/I218V/L300P/L318F/N151K/N90K/P208A/P217A/Q86G/Q94H/R138H/R169H/T345S).
T1 construct: host or cells: T2 cells (human T-B lymphoblast hybrid, TAP1/TAP2 deficient)
As to the kind of experiment: T2 binding assay (HLA-A2 expression on T2 cells by flow cytometry).

Assay [1] has as its system C1R.AAD cells pulsed or unpulsed with peptide. As to the kind of experiment: CTL 51Cr-release assay, spleen cells of peptide-immunized HLA-A2 transgenic mice against peptide-pulsed or unpulsed targets. The class given is in vivo. To be noted: spleen cells from immunized HLA-A2-transgenic mice. The source says: (§1) FIG. 3. CTLs induced with peptide of the invention can lyse human cancer cell expressing XAGE-1. Spleen cells derived from HLA-A2 transgenic mice immunized with a peptide of the invention (SEQ ID NO:6), as the effector cells, were stimulated in vitro for two weeks and used for a CTL assay. C1R.AAD cells pulsed or unpulsed with a peptide of SEQ ID NO:6 and a human osteosarcoma cell line expressing XAGE-1 (SB, described in Liu et al, Can Research 60:4752-4755 (2000)) were used as target cells. “E:T Ratio” stands for “Effector:Target ratio,” as indicated on the axis.
(§2) Xage-1 14 peptide (50 nmol) was emulsified in incomplete Freund's adjuvant with 50 nmol of a helper epitope derived from HCV core128-140, 5 μg of IL-12, and 5 μg of GM-CSF. Transgenic A2 Kb mice were immunized s.c. with the emulsified peptide and given a booster shot at 2 weeks. […] A week after the second stimulation, cells were harvested and measured for cytotoxic activity. The cytotoxic activity was measured by 4-hr ^51Cr-release assay. The percentage of specific ^51Cr release was determined as follows: (experimental release−spontaneous release)/(maximum release−spontaneous release)×100. Maximum release was determined from supernatants of cells that were lysed by addition of 5% Triton X-100. Spontaneous release was determined from target cells incubated without added effector cells. […]

For assay [2], the system named is HLA-A2 positive human Ewing's sarcoma cell line which expresses XAGE-1 mRNA. Description: CTL lysis of human XAGE-1-expressing cancer cells by CTLs of immunized HLA-A2 transgenic mice. The class given is in vivo.
Text: as §1, §2

[3] abbreviates: T2 binding assay, enhanced xage-1 14 peptides, read-out: Binding Affinity to HLA-A2 (FI50).
Setting [4] is: T2 cells, overnight incubation with peptide and β2-microglobulin, read-out: binding affinity to HLA-A2 (F.I.50).

On to `CC(C)C[C@H](NC(=O)[C@@H](N)Cc1ccc(O)cc1)C(=O)N[C@@H](Cc1ccccc1)C(=O)N1CCC[C@H]1C(=O)N[C@@H](CO)C(=O)N[C@@H](C)C(=O)N1CCC[C@H]1C(=O)N[C@@H](CO)C(=O)N1CCC[C@H]1C(=O)N[C@H](C(=O)O)C(C)C` [1Y2L xage-1 14, YLFPSAPSPV] (H-YLFPSAPSPV-OH; N-terminus and C-terminus assumed), for which the EC50 on HLA-A2 (setting [3]) came out at 3040 nM.
On to `CC(C)[C@H](NC(=O)[C@@H]1CCCN1C(=O)[C@H](CO)NC(=O)[C@@H]1CCCN1C(=O)[C@H](C)NC(=O)[C@H](CO)NC(=O)[C@@H]1CCCN1C(=O)[C@H](Cc1ccccc1)NC(=O)[C@@H](NC(=O)CN)C(C)C)C(=O)O` [xage-1 14, GVFPSAPSPV] (H-GVFPSAPSPV-OH; N-terminus and C-terminus assumed), for which the “binding to HLA-A2 (in words)” value at HLA-A2 (T2 binding assay) is “surprisingly stronger binding to HLA-A2 compared to other candidate peptides”. Moreover, the EC50 on HLA-A2 (setting [4]) lay in the range of 700 to 800 nM. In addition, the “specific lytic activity against peptide-pulsed targets” value in assay [1] (stimulated twice in vitro, targets pulsed with xage-1 14) is “lysed target cells pulsed with peptide”. In addition, the “lytic activity against target cells not pulsed with peptide” value in assay [1] (unpulsed targets) is “did not lyse target cells not pulsed with peptide”. Further, the “killing of human XAGE-1-expressing cancer cells by CTLs (FIG. 3)” value in assay [2] (CTLs from HLA-A2 transgenic mice immunized with peptide, varying E:T ratio) is recorded as “killed human RAGE-1-expressing cancer cells in a dose dependent manner”. Moreover, the “lysis of human Ewing's sarcoma cells by CTLs” value in assay [2] (CTLs from mice immunized twice with peptide, restimulated in vitro) was “lysed the human Ewing's sarcoma cells”.
Take `CSCC[C@H](NC(=O)[C@H](CC(C)C)NC(=O)CN)C(=O)N1CCC[C@H]1C(=O)N[C@@H](CO)C(=O)N[C@@H](C)C(=O)N1CCC[C@H]1C(=O)N[C@@H](CO)C(=O)N1CCC[C@H]1C(=O)N[C@H](C(=O)O)C(C)C` [2L3M xage-1 14, GLMPSAPSPV] (H-GLMPSAPSPV-OH; N-terminus and C-terminus assumed): the “binding to HLA-A2 (in words)” value at HLA-A2 (T2 binding assay) is “particularly high binding affinity to HLA-A2”. Further, the EC50 at HLA-A2 (setting [3]) came out at 620 nM.
Take `CC(C)[C@H](NC(=O)[C@@H]1CCCN1C(=O)[C@H](CO)NC(=O)[C@@H]1CCCN1C(=O)[C@H](C)NC(=O)[C@H](CO)NC(=O)[C@@H]1CCCN1C(=O)[C@H](Cc1ccccc1)NC(=O)[C@@H](NC(=O)[C@@H](N)Cc1ccc(O)cc1)C(C)C)C(=O)O` [1Y xage-1 14, YVFPSAPSPV] (H-YVFPSAPSPV-OH; N-terminus and C-terminus assumed): the EC50 on HLA-A2 (setting [3]) worked out at 2360 nM.
With `CC[C@H](C)[C@H](NC(=O)[C@H](Cc1c[nH]c2ccccc12)NC(=O)[C@@H](NC(=O)[C@H](CCC(=O)O)NC(=O)[C@@H]1CCCN1C(=O)[C@@H](NC(=O)[C@H](CCCNC(=N)N)NC(=O)[C@@H](NC(=O)[C@H](C)N)[C@@H](C)O)C(C)C)C(C)C)C(=O)N[C@@H](CC(C)C)C(=O)O` [xage-1 33, ATRVPEVWIL, reference compound] (H-ATRVPEVWIL-OH), the EC50 on HLA-A2 (setting [4]) was over 50000 nM.
In the case of `CSCC[C@H](NC(=O)[C@@H](NC(=O)CN)C(C)C)C(=O)N1CCC[C@H]1C(=O)N[C@@H](CO)C(=O)N[C@@H](C)C(=O)N1CCC[C@H]1C(=O)N[C@@H](CO)C(=O)N1CCC[C@H]1C(=O)N[C@H](C(=O)O)C(C)C` [3M xage-1 14, GVMPSAPSPV] (H-GVMPSAPSPV-OH; N-terminus and C-terminus assumed), the “binding to HLA-A2 (in words)” value on HLA-A2 (T2 binding assay) was “particularly high binding affinity to HLA-A2”. Further, at HLA-A2 (setting [3]), the EC50 was determined as 280 nM.
With `CC(C)C[C@H](NC(=O)CN)C(=O)N[C@@H](Cc1ccccc1)C(=O)N1CCC[C@H]1C(=O)N[C@@H](CO)C(=O)N[C@@H](C)C(=O)N1CCC[C@H]1C(=O)N[C@@H](CO)C(=O)N1CCC[C@H]1C(=O)N[C@H](C(=O)O)C(C)C` [2L xage-1 14, GLFPSAPSPV] (H-GLFPSAPSPV-OH; N-terminus and C-terminus assumed), on HLA-A2 (setting [3]), the EC50 was 1860 nM.
Turning to `CSCC[C@H](NC(=O)[C@@H](NC(=O)[C@@H]1CCCN1C(=O)[C@H](CO)NC(=O)[C@H](CCCNC(=N)N)NC(=O)[C@@H]1CCCN1C(=O)[C@H](CO)NC(=O)[C@H](C)NC(=O)[C@@H](NC(=O)[C@@H](N)Cc1c[nH]cn1)[C@@H](C)O)C(C)C)C(=O)O` [xage-1 57, HTASPRSPVM, reference compound] (H-HTASPRSPVM-OH), the EC50 on HLA-A2 (setting [4]) is over 50000 nM.
